# Laboratory results published in patent US7569537B2, “Peptide antagonists for inhibiting heat shock protein (Hsp 16.3) of Mycobacterium tuberculosis” (priority 2004, dated 2009).
# No end group written: not given here.
# Experiments:
# Hsp16.3 [1] = biological target: T1, Hsp16.3 (Mycobacterium tuberculosis, UniProt P9WMK1); test: ADH heat aggregation assay for inhibition of Hsp16.3 chaperon activity; type: biochemical
# Protocol: FIG. 2. […] Aggregation assays were performed by heating 5 μM Alcohol dehydrogenase (ADH) to 50° C. directly in a spectrophotometer using a thermostated cuvette holder in a total reaction volume of 500 μl. Optical density was monitored at 360 nm for 1200 seconds and readings were taken at every 100 seconds interval. […] Then the same experiment was performed in the presence of increasing concentrations of the Hsp16.3 binding peptide Seq IDs 10. Aggregation of ADH in the absence of Hsp 16.3 (black triangle). Aggregation in the presence of Hsp 16.3 (black circle). The same experiment when performed in the presence of increasing concentrations of the Hsp 16.3 binding peptide (Seq ID 10) 25 μM (white square), 50 μM (black square), 100 μM (white triangle). Only peptide control (ADH+100 μM peptide) (white circle).
# The binding of a peptide need not necessarily result in inhibition. Inhibition will happen only if binding leads to significant changes in the active site. […] A part of the invention is the development of a peptide inhibition assay for Hsp16.3. The method is based on aggregation based assays. The standard assay used for assaying the activity of alpha-crystallin like proteins is to study the protection it confers against heat induced aggregation of proteins, the aggregation activity being measured spectrophotometrically. […] Aggregation of 5 μM ADH at 50° C. can be measured as an apparent optical density at 360 nm using a spectrophotometer equipped with a thermostated cuvette holder in a total reaction volume of 500 μl. The chaperon activity of Hsp16.3 can be determined by mixing ADH with Hsp16.3 at a molar ratio of 5:4 which is equivalent to a ratio of about 12:1 between ADH and Hsp16.3 assuming a nonameric structure of Hsp16.3 as the functional unit (Chang et al., 1996) and aggregation rates again determined spectrophotometrically. […]
# A part of the invention is the peptide inhibition assay for Hsp16.3 comprising of heat treating ADH alone, ADH+Hsp16.3 and ADH+Hsp16.3+25, 50 and 100 μM peptide. […] Aggregation of 5 μM ADH at 50° C. was measured as an apparent optical density at 360 nm using Hitachi spectrophotometer equipped with a thermostated cuvette holder in a total reaction volume of 500 μl. The chaperon activity of Hsp16.3 was determined by mixing ADH with Hsp16.3 at a molar ratio of 5:4 and aggregation rates were again determined spectrophotometrically. […]
# Aggregation assays were performed by heating 5 μM Alcohol dehydrogenase (ADH) to 50° C. directly in a spectrophotometer using a thermostated cuvette holder in a total reaction volume of 500 μl. Absorbance was monitored at 360 nm (A360) for 1200 seconds and readings were taken at every 100 seconds interval. […] The increase in absorbance indicates aggregation of ADH. […]
# Hsp16.3 [2] = biological target: T1, Hsp16.3; conditions: reverse phage ELISA, A405, 30 μg/well Hsp16.3 or BSA
# Hsp16.3 [3] = biological target: T1, Hsp16.3; test: NMR (TOCSY) amide proton chemical shifts of peptide free and with Hsp16.3; type: binding; conditions: 0.1 mM protein, 2 mM peptide, pH 7.0, 4 °C
# Protocol: FIG. 5. Comparison of chemical shifts of amide protons of free peptide (Seq ID 10) (a) and peptide with Hsp16.3 protein (b). Resonance assignments are indicated with a one-letter amino acid code. All NMR spectra were taken in a Bruker DRX-500 spectrometer equipped with a Z-field gradient probe. All measurements were done in high precision 5-mm NMR tubes in 20 mM sodium phosphate buffer, pH 7.0, containing 250 mM NaCl in 90% H2O and 10% D2O at 4° C. TOCSY spectra were measured using standard pulse sequences in the Bruker pulse library using WATERGATE water suppression method. Standard Bruker software (Xwin-NMR version 1.3) was used to acquire and process the NMR data. The NMR samples were adjusted to a protein concentration of 0.1 mM and a 20-fold ligand excess (2 mM) over binding sites was used throughout the studies.
# An important aspect of inhibitor development procedures is to understand the nature of interactions between the inhibitor and its target. […] As a part of this disclosure it is shown that histidine residues in one of the two peptide inhibitors namely Seq ID 10 interact with Hsp16.3 as determined by NMR.
# All NMR spectra were taken in a Bruker DRX-500 NMR spectrometer equipped with a Z-field gradient probe. […] TOCSY spectra were measured using standard pulse sequences in the Bruker pulse library using WATERGATE water suppression method. […]
# human alphaB-crystallin = biological target: T2, human alphaB-crystallin (Homo sapiens, UniProt P02511); test: ADH heat aggregation assay with alphaB-crystallin instead of Hsp16.3; type: biochemical; conditions: 25, 50 and 100 μM peptide, ADH:alphaB-crystallin 5:4
# T2 construct: made in house
# T2 sequence (P02511 1-175): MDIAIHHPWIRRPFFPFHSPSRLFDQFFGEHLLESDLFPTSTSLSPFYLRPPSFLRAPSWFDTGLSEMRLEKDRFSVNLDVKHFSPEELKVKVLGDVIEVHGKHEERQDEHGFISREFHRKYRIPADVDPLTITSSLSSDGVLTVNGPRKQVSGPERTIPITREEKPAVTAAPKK
# Protocol: FIG. 3. An example to show the specificity of the inhibitory peptides for Hsp16.3 and not for alphaB-crystallin—a component of human eye lens. A similar assay as described in FIG. 2 was performed using alphaB-crystalline instead of Hsp16.3. The molar ratio between ADH and alphaB-crystallin was maintained 5:4 as in the case of Hsp 16.3. Aggregation in the absence of alphaB-crystallin (black triangle). Aggregation in the presence of alphaB-crystalline (black circle). The same experiment was performed in the presence of increasing concentrations of the Hsp16.3 binding peptide (Seq ID 10) 25 μM (white square), 50 μM (black square), 100 μM (white triangle). Only peptide control (ADH+100 μM peptide) (white circle).
# ADH upon being heated to 50° C. aggregates. This aggregation can be completely stopped when Hsp16.3 is added in such a way so as to obtain a molar ratio of ADH to Hsp 16.3 monomer of about 5:4. Incorporation of peptide at a concentration of 100 μM i.e. about 25 fold molar excess leads to significant inhibition of chaperon activity. […] Since it has been shown that Hsp16.3 has functional similarity with human alphaB-crystallin, an eye lens protein (Valdez et al., 2002), therefore the effect of these peptides on human alphaB-crystallin was examined. […] The vector used for expression of this protein was originally generated by Dr. W. C. […]
# T1 sequence (P9WMK1 whole entry, looked up): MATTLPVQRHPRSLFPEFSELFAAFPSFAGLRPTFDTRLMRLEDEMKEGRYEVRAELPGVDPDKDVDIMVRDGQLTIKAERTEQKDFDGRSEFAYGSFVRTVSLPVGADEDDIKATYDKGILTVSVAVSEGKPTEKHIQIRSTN
Substance,IC50 (Hsp16.3 [1]),binding of phage clone to Hsp16.3 compared to non-specific control BSA (background binding) (Hsp16.3 [2]),also measured
H-YPHHFKHRHIPIGGGS-NH2 [Seq ID 22],~50 µM,,
YPHHFKHRHIPI [Seq ID 21],,about three-fold,
H-KMHATNHGGGS-NH2 [Seq ID 10],~50 µM,,"chemical shift change of peptide amide protons on addition of Hsp16.3 (Hsp16.3 [3]): significant chemical shift occured in both histidines; inhibition of chaperon activity of Hsp16.3 (in words) (Hsp16.3 [1]; 25, 50 and 100 μM peptide): dose dependent inhibition; effect of peptide alone on aggregation of ADH (control without Hsp16.3) (Hsp16.3 [1]; ADH + 100 μM peptide, no Hsp16.3): does not influence the aggregation of ADH; inhibition of chaperon activity of alphaB-crystallin (in words) (human alphaB-crystallin): no inhibition"
KMHATNH [Seq ID 9],,about three-fold,
